Measurements published in the NIST ThermoML archive (doi:10.1021/acs.jced.7b00297).

Experiment: mn = molality of the nth substance listed, in mol/kg
Details: 84.5 kPa, Liquid; for speed of sound: Single path-length method; for mass density: Vibrating tube method

CCCCCCn1cc[n+](C)c1.[Cl-] [1-hexyl-3-methylimidazolium chloride] + O
Details | mass density, 288.15 K [kg/m3] | mass density, 298.15 K [kg/m3] | mass density, 308.15 K [kg/m3] | mass density, 318.15 K [kg/m3] | speed of sound, 288.15 K [m/s] | speed of sound, 298.15 K [m/s] | speed of sound, 308.15 K [m/s] | speed of sound, 318.15 K [m/s]
m1 = 0.0096 | 999.203 | 997.128 | 994.101 | 990.268 | 1468.2 | 1498.2 | 1521.1 | 1537.6
m1 = 0.0296 | 999.412 | 997.304 | 994.252 | 990.4 | 1471.7 | 1501.3 | 1523.7 | 1539.8
m1 = 0.0585 | 999.713 | 997.562 | 994.471 | 990.58 | 1476.8 | 1505.7 | 1527.4 | 1543
m1 = 0.0734 | 999.867 | 997.692 | 994.583 | 990.681 | 1479.4 | 1507.9 | 1529.3 | 1544.6
m1 = 0.0999 | 1000.15 | 997.932 | 994.787 | 990.859 | 1483.9 | 1511.7 | 1532.6 | 1547.3
m1 = 0.1212 | 1000.37 | 998.125 | 994.95 | 990.996 | 1487.4 | 1514.8 | 1535.2 | 1549.6
m1 = 0.1542 | 1000.73 | 998.421 | 995.204 | 991.215 | 1493 | 1519.5 | 1539.2 | 1553
m1 = 0.2244 | 1001.47 | 999.058 | 995.748 | 991.681 | 1504 | 1528.9 | 1547.3 | 1559.8
m1 = 0.2863 | 1002.12 | 999.62 | 996.227 | 992.089 | 1513.8 | 1537.3 | 1554.3 | 1565.8
m1 = 0.469 | 1004.08 | 1001.27 | 997.628 | 993.281 | 1540.2 | 1559.7 | 1573.2 | 1581.6
m1 = 0.8901 | 1008.38 | 1004.89 | 1000.7 | 995.899 | 1591.4 | 1602.4 | 1608.7 | 1610.9

CCCCn1cc[n+](C)c1.O=S(=O)([O-])C(F)(F)F [1-butyl-3-methylimidazolium trifluoromethanesulfonate] + O
Details | mass density, 288.15 K [kg/m3] | mass density, 298.15 K [kg/m3] | mass density, 308.15 K [kg/m3] | mass density, 318.15 K [kg/m3] | speed of sound, 288.15 K [m/s] | speed of sound, 298.15 K [m/s] | speed of sound, 308.15 K [m/s] | speed of sound, 318.15 K [m/s]
m1 = 0.0164 | 1000.27 | 998.176 | 995.134 | 991.289 | 1468.7 | 1498.5 | 1521.1 | 1537.4
m1 = 0.0259 | 1000.93 | 998.823 | 995.765 | 991.906 | 1469.8 | 1499.4 | 1521.8 | 1537.9
m1 = 0.042 | 1002.06 | 999.922 | 996.836 | 992.952 | 1471.8 | 1501 | 1523 | 1538.8
m1 = 0.0699 | 1003.99 | 1001.79 | 998.662 | 994.732 | 1475 | 1503.5 | 1524.8 | 1540
m1 = 0.1072 | 1006.54 | 1004.28 | 1001.08 | 997.093 | 1479.2 | 1506.6 | 1527.2 | 1541.7
m1 = 0.1455 | 1009.12 | 1006.78 | 1003.52 | 999.47 | 1483.8 | 1510.2 | 1529.8 | 1543.6
m1 = 0.3021 | 1019.31 | 1016.66 | 1013.11 | 1008.81 | 1499.6 | 1522.1 | 1538.4 | 1549.2
m1 = 0.4645 | 1029.21 | 1026.22 | 1022.39 | 1017.83 | 1513.4 | 1532.3 | 1545.4 | 1553.4
m1 = 0.6651 | 1040.6 | 1037.21 | 1033.03 | 1028.16 | 1526.7 | 1541.5 | 1551.1 | 1556.2
m1 = 0.8671 | 1051.21 | 1047.44 | 1042.94 | 1037.8 | 1535.6 | 1546.9 | 1553.8 | 1556.5
